In patent publication US12280072B2, “Oligosaccharide compound for inhibiting intrinsic coagulation factor X-enzyme complex, and preparation method therefor and uses thereof” (Jiuzhitang Co., Ltd., priority 2017, dated 2025):

Key:
Type in all cases: biochemical
human-controlled plasma [1] = assay: Anticoagulant activity assay: APTT clotting time
Procedure: (§1) 8.2 Methods • (1) Preparation of sample solution: Oligosaccharide compounds A1˜A8, B1˜B11 and oligosaccharide mixtures C1, D1, D2 were all dissolved in Tris-HCl buffer and diluted to the desired series of solubility. • (2) Anticoagulant activity assay: 90 μL of human-controlled plasma was added to the sample or 10 μL of the control solution, and then the clotting time (APTT and PT) was detected by the MC-4000 coagulometer according to the method described in the APTT and PT kit instructions. • (3) Coagulation factor inhibitory activity analysis: […]

human-controlled plasma [2] = assay: Anticoagulant activity assay: PT clotting time
Procedure: as §1

plasma = assay: TT (thrombin time) clotting time
intrinsic factor Xase = target: T1, intrinsic factor Xase (Homo sapiens, UniProt P00740); assay: Xase inhibitory activity assay; details: read-out: Drug concentration required to inhibit 50% of coagulation factor activity (IC50, ng/mL) Xase (converted)
T1 construct: 60 nM FIXa; purchased
Procedure: Xase inhibitory activity assay: Detection was performed according to kit instructions and literature methods by combining the Factor VIII and […]. Specifically, to each well of a 96-well plate, 30 μL of test solution, control solution, or Tris-HCl buffer (negative control) was added, and 30 μl of FVIII (2 IU/ml), 30 μl of R2 (60 nM FIXa, containing FIIa, PC/PS, Ca^2+) were sequentially added, mixed by shaking the plate, incubated at 37° C. for 2 min; and then 30 μL of R1 (50 nM FX, containing direct thrombin inhibitor) was added, mixed by shaking the plate, incubated at 37° C. for 1 min; and then 30 μL of R3 (FXa chromogenic substrate SXa-11, about 8.4 mM) was added. The absorbance at 405 nm (OD405) was detected with a microplate reader, continuously measuring for 7.5 min at a interval of 30 s. The Xase activity and IC50 value of Xase inhibition of the test sample were calculated based on the OD405 change value.
(§2) Data processing: The average value of OD405 detected by the duplicated well was used as the detection value of the test sample and the reference of each concentration, and the slope of the linear fit between the detected value to the time value (the change rate of the absorbance value OD405/min) indicated enzymatic activity of coagulation factor. Taking the clotting factor activity of the negative control well as 100%, coagulation factor activity (percentage) in the presence of the test sample was calculated. The coagulation factor activity in the presence of the test sample was plotted against the concentration of the test sample, and fitted according to the following formula, to calculate the IC50 value: B=(IC50)^n/{(IC50)^n+[I]^n}
(§3) in the formula, B is the coagulation factor activity (percentage) in the presence of the test sample, [I] is the concentration of the test sample, IC50 is the half inhibitory concentration (concentration of the test sample required to inhibit 50% of the activity), and n is the Hill coefficient. • (4) Effect on surface activation and platelet activity: […]

FXa (Homo sapiens) = target: T2, FXa (Homo sapiens); assay: AT-dependent Xa inhibitory activity assay; details: in presence of AT; read-out: Drug concentration required to inhibit 50% of coagulation factor activity (IC50, ng/mL) Xa (AT)
T2 construct: 8 μg/mL FXa solution; purchased
Procedure: AT-dependent Xa inhibitory activity assay: Heparin […] kit was used for detection. To a 96-well plate, 30 μL of sample, control solution or Tris-HCl buffer (negative control) was added, then 30 μL of 1 IU/mL AT solution was added, mixed well and incubated at 37° C. for 1 min; and than 30 μL of 8 μg/mL FXa solution was added, mixed well and incubated at 37° C. for 1 min, then 30 μL of pre-warmed 1.25 mM Xa chromogenic substrate SXa-11 was added. OD405 was detected by a microplate reader.
as §2, §3

FIIa (Homo sapiens) = target: T3, FIIa (Homo sapiens); assay: AT-dependent IIa inhibitory activity assay; details: in presence of AT; read-out: Drug concentration required to inhibit 50% of coagulation factor activity (IC50, ng/mL) Ha (AT)
T3 construct: antithrombin (i.e., active coagulation factor IIa); purchased
Procedure: AT-dependent IIa inhibitory activity assay: Heparin Anti-FIIa kit was used for detection. To a 96-well plate, 30 μL of sample, control solution or Tris-HCl buffer (negative control) was added, and then 30 μL of 1 IU/mL AT solution was added, mixed well by shaking the plate and incubated at 37° C. for 2 min; 30 μL of 24 IU/mL FIIa solution was added, mixed well by shaking the plate and incubated for 2 min at 37° C., and then 30 μL of pre-warmed 1.25 mM FIIa specific chromogenic substrate CS-01 (38) was added, mixed well by shaking the plate. The OD405 was detected by a microplate reader and the IC50 value of FIIa inhibition of each sample was calculated.
as §2, §3

T3 sequence (P01008 33-464): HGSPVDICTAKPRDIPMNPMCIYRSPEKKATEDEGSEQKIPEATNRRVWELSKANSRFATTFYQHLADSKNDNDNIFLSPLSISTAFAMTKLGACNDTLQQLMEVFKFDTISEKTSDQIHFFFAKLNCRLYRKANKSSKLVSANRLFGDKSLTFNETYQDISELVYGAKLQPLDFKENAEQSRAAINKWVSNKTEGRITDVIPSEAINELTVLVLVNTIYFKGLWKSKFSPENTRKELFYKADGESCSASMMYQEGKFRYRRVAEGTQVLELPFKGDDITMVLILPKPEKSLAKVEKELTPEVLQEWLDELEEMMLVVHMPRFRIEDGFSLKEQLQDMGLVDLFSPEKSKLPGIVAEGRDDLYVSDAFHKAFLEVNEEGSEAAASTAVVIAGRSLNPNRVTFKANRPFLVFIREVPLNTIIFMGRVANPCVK
T2 sequence (P01008 33-464): as above
T1 sequence (P00740 47-191 limits assumed): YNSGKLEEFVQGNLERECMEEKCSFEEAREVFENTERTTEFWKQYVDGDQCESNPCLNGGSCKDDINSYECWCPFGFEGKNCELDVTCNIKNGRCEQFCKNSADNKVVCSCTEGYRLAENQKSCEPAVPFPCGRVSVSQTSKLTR
T1 sequence (P00740 227-461 limits assumed): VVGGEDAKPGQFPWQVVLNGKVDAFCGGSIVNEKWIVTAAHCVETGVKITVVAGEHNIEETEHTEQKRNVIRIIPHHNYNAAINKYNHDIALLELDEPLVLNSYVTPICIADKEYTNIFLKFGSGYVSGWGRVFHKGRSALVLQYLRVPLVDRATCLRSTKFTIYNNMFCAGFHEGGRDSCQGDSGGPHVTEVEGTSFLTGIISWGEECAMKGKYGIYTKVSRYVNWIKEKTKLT

SMILES	Drug concentration required for multiplication of coagulation time (μg/mL) APTT (human-controlled plasma [1])	Drug concentration required for multiplication of coagulation time (μg/mL) PT (human-controlled plasma [2])	Drug concentration required for multiplication of coagulation time (μg/mL) TT (plasma)	IC50 (intrinsic factor Xase)	IC50 (FXa (Homo sapiens))	IC50 (FIIa (Homo sapiens))
CC(=O)NC1C(OC2C(C(=O)O)OC(OC3C(NC(C)=O)C(OC4C(C(=O)O)OC(OCc5ccccc5)C(O)C4OC4OC(C)C(OS(=O)(=O)O)C(O)C4OS(=O)(=O)O)OC(COS(=O)(=O)O)C3OS(=O)(=O)O)C(O)C2OC2OC(C)C(OS(=O)(=O)O)C(O)C2OS(=O)(=O)O)OC(COS(=O)(=O)O)C(OS(=O)(=O)O)C1OC1OC(C(=O)O)=CC(OC2OC(C)C(OS(=O)(=O)O)C(O)C2OS(=O)(=O)O)C1O [Compound B9, L-Fuc2S4S-(α1,3)-L-ΔUA-(α1,3)-D-GaNAc4S6S-(D1,4)-[L-Fuc2S4S-(α1,3)]-D-GlcA-(β1,3)-D-GalNAc4S6S-(β1,4)-[L-Fuc2S4S-(α1,3)]-D-1-Benzyl-GlcA-ol]	7.6 µg/mL	# (>128 μg/mL)	# (>128 μg/mL)	26.3 nM	> 2210 nM	> 2210 nM
CC(=O)NC1C(OC2C(C(=O)O)OC(OC3C(NC(C)=O)C(OC4C(C(=O)O)OC(OC5C(NC(C)=O)C(OC(C(O)C(=O)O)C(OC6OC(C)C(OS(=O)(=O)O)C(OS(=O)(=O)O)C6O)C(O)CO)OC(COS(=O)(=O)O)C5OS(=O)(=O)O)C(O)C4OC4OC(C)C(OS(=O)(=O)O)C(OS(=O)(=O)O)C4O)OC(COS(=O)(=O)O)C3OS(=O)(=O)O)C(O)C2OC2OC(C)C(OS(=O)(=O)O)C(OS(=O)(=O)O)C2O)OC(COS(=O)(=O)O)C(OS(=O)(=O)O)C1OC1OC(C(=O)O)=CC(OC2OC(C)C(OS(=O)(=O)O)C(OS(=O)(=O)O)C2O)C1O [Compound B3, L-Fuc3S4S-(α1,3)-L-ΔUA-(α1,3)-{D-GalNAc4S6S-(β1,4)-[L-Fuc3S4S-(α1,3)]-D-GlcA-(β1,3)}˜-D-GalNAc4S6S-(β1,4)-[L-Fuc3S4S-(α1,3)]-D-GlcA-ol]	6.1 µg/mL	# (>128 μg/mL)	# (>128 μg/mL)	10.3 nM	> 1650 nM	> 1650 nM
CC1OC(OC2C=C(C(=O)O)OC(OC3C(NS(=O)(=O)O)C(OC4C(C(=O)O)OC(OC5C(NS(=O)(=O)O)C(OC6C(C(=O)O)OC(OC(C(CO)NS(=O)(=O)O)C(OS(=O)(=O)O)C(O)COS(=O)(=O)O)C(O)C6OC6OC(C)C(OS(=O)(=O)O)C(O)C6OS(=O)(=O)O)OC(COS(=O)(=O)O)C5OS(=O)(=O)O)C(O)C4OC4OC(C)C(OS(=O)(=O)O)C(O)C4OS(=O)(=O)O)OC(COS(=O)(=O)O)C3OS(=O)(=O)O)C2O)C(OS(=O)(=O)O)C(O)C1OS(=O)(=O)O [Compound A7, L-Fuc2S4S-(α1,3)-L-ΔUA-(α1,3)-{D-GalNS4S6S-(β1,4)-[L-Fuc2S4S-(α1,3)-]-D-GlcA-(β1,3)}2-D-Gal-NS4S6S-ol]	6.9 µg/mL	# (>128 μg/mL)	# (>128 μg/mL)	22.2 nM	> 1880 nM	> 1880 nM
